How the values were obtained:
[1] = biological target: Neuronal acetylcholine receptor subunit alpha-7 (Rattus norvegicus, UniProt Q05941); experiment: Displacement of [3H]methyllylcaconitine from alpha7 nAChR in rat brain; assay type: tissue-based
[2] = biological target: T1, Neuronal acetylcholine receptor; alpha4/beta2 (Homo sapiens, UniProt P17787+P43681); experiment: Agonist activity at human recombinant alpha4beta2 nAChR in HEK293 cells by FLIPR assay; assay type: functional, cell-based
[3] = Plasma concentration in rat at 3 umol/kg, ip at 30 mins; assay type: ADME, organism-based
[4] = biological target: T2, Neuronal acetylcholine receptor; alpha3/beta4 (Homo sapiens, UniProt P30926+P32297); experiment: Agonist activity at human recombinant alpha3beta4 nAChR in HEK293 cells by FLIPR assay; assay type: functional, cell-based
[5] = biological target: T3, Neuronal acetylcholine receptor subunit alpha-7 (Homo sapiens, UniProt P36544); experiment: Agonist activity at human recombinant alpha7 nAChR expressed in xenopus oocytes by patch clamp assay relative to acetylcholine; assay type: functional, cell-based; conditions: Oocyte
[6] = Ratio of drug level in brain to plasma in rat at 3 umol/kg, ip at 30 mins; assay type: ADME, organism-based; conditions: read-out: BPR
[7] = Binding affinity to 5HT3
[8] = biological target: Voltage-gated inwardly rectifying potassium channel KCNH2 (Homo sapiens, UniProt Q12809); experiment: Displacement of [3H]dofetilide from human ERG expressed in HEK293 cells
[9] = biological target: T3, Neuronal acetylcholine receptor subunit alpha-7; experiment: Agonist activity at human recombinant alpha7 nAChR expressed in xenopus oocytes by patch clamp assay; assay type: functional, cell-based, Oocyte
[10] = biological target: Neuronal acetylcholine receptor subunit alpha-7 (Rattus norvegicus) (UniProt Q05941); experiment: Ratio of tilorone Ki to compound Ki for alpha7 nAChR in rat brain; assay type: tissue-based
[11] = biological target: Muscarinic acetylcholine receptor; experiment: Binding affinity to muscarinic receptor in rat brain; assay type: tissue-based
[12] = biological target: T2, Neuronal acetylcholine receptor; alpha3/beta4; experiment: Agonist activity at alpha3beta4 nAChR receptor by FLIPR assay; assay type: functional
[13] = biological target: Neuronal acetylcholine receptor; alpha3/beta2 (Homo sapiens, UniProt P17787+P32297); experiment: Agonist activity at alpha3beta2 nAChR receptor by FLIPR assay; assay type: functional
[14] = biological target: T1, Neuronal acetylcholine receptor; alpha4/beta2; experiment: Agonist activity at alpha4beta2 nAChR receptor by FLIPR assay; assay type: functional
[15] = biological target: Neuronal acetylcholine receptor; alpha4/beta4 (Homo sapiens, UniProt P30926+P43681); experiment: Agonist activity at alpha4beta4 nAChR receptor by FLIPR assay; assay type: functional
Sequence of Neuronal acetylcholine receptor; alpha4/beta4 (P30926 whole entry): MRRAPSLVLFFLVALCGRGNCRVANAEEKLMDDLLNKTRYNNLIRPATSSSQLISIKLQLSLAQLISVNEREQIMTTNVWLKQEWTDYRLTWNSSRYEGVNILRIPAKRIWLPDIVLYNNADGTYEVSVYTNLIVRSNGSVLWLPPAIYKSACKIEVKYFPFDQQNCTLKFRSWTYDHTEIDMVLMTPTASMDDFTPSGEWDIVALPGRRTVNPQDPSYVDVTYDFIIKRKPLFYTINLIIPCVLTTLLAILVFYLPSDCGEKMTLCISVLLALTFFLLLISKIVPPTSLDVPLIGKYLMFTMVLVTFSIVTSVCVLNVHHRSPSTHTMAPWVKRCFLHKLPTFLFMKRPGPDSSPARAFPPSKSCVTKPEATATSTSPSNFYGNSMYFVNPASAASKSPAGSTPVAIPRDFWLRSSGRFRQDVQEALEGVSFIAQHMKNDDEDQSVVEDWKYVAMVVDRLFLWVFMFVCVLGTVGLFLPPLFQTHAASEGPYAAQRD
Sequence of Neuronal acetylcholine receptor; alpha4/beta4 (P43681 whole entry): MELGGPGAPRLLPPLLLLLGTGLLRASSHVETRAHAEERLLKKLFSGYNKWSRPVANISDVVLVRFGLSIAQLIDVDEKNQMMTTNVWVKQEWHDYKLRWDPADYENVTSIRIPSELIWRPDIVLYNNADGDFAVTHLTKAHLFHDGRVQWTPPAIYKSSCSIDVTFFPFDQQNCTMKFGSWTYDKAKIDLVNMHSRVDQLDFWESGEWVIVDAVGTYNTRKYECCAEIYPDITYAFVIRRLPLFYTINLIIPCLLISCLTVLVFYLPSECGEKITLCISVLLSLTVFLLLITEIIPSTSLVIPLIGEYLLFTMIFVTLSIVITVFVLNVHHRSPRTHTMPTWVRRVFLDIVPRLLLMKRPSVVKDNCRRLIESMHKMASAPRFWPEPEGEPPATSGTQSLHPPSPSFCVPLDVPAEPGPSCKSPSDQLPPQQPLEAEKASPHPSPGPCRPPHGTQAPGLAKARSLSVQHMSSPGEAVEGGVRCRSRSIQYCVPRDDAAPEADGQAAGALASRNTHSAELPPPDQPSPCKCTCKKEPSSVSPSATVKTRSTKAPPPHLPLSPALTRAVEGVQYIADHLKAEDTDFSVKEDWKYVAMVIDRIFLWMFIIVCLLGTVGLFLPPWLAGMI

T2 sequence (P30926 whole entry): as the sequence (P30926 whole entry) above
T2 sequence (P32297 whole entry): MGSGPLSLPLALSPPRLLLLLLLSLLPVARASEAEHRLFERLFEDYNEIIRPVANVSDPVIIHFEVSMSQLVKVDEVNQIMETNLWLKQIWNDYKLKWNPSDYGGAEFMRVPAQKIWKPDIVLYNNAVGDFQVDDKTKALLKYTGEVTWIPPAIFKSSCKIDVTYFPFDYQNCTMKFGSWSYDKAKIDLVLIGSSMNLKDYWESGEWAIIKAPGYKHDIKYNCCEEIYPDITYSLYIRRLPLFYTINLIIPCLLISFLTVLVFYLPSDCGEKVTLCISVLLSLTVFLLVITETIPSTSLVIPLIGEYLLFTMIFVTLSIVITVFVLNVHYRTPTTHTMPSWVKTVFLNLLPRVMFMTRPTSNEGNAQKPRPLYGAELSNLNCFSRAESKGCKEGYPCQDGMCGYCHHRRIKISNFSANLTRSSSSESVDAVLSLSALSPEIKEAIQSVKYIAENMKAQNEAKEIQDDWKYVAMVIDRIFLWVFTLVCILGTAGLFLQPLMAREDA
T3 sequence (P36544 whole entry): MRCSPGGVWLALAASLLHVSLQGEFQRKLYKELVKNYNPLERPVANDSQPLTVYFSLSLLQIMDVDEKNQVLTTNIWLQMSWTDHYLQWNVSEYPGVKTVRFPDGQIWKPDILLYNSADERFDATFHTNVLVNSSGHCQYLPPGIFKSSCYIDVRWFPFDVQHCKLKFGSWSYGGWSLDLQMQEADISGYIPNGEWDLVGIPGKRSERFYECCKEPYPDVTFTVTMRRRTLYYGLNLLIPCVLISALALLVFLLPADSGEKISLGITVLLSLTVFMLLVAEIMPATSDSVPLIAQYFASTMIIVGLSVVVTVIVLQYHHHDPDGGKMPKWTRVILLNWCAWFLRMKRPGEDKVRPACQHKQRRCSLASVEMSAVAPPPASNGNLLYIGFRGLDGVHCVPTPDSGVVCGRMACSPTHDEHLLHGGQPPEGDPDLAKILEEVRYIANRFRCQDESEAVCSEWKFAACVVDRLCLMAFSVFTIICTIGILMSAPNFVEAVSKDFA
Sequence of Neuronal acetylcholine receptor subunit alpha-7 (Rattus norvegicus, UniProt Q05941) (Q05941 whole entry): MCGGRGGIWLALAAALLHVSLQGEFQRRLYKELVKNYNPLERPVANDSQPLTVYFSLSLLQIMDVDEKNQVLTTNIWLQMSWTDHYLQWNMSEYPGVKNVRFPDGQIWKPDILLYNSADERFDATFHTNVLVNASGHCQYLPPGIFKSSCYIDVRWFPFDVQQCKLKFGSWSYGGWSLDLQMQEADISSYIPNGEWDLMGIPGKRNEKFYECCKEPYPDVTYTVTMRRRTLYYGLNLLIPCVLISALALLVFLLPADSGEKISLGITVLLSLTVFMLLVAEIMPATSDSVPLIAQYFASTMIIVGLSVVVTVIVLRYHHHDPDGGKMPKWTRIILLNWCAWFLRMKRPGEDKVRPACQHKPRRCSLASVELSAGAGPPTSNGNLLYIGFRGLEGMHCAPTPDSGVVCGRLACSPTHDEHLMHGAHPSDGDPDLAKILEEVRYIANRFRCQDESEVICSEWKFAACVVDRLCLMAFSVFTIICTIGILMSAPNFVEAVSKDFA
T1 sequence (P17787 whole entry): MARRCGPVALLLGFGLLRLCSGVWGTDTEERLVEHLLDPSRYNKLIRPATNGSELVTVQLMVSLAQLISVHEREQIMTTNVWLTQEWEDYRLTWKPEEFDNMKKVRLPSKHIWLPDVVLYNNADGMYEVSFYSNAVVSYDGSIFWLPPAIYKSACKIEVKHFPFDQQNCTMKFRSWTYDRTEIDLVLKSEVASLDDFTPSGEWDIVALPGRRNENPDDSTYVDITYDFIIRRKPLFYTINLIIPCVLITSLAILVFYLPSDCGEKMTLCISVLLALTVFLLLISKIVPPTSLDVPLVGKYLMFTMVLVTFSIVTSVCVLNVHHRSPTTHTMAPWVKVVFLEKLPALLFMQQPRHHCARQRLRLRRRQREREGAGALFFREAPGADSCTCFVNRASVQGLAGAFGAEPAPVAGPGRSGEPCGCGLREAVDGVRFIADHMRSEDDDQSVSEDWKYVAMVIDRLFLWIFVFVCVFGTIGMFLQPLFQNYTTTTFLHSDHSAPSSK
T1 sequence (P43681 whole entry): as the sequence (P43681 whole entry) above
Sequence of Neuronal acetylcholine receptor subunit alpha-7 (Rattus norvegicus) (Q05941 whole entry): as the sequence (Q05941 whole entry) above
Sequence of Voltage-gated inwardly rectifying potassium channel KCNH2 (Q12809 whole entry): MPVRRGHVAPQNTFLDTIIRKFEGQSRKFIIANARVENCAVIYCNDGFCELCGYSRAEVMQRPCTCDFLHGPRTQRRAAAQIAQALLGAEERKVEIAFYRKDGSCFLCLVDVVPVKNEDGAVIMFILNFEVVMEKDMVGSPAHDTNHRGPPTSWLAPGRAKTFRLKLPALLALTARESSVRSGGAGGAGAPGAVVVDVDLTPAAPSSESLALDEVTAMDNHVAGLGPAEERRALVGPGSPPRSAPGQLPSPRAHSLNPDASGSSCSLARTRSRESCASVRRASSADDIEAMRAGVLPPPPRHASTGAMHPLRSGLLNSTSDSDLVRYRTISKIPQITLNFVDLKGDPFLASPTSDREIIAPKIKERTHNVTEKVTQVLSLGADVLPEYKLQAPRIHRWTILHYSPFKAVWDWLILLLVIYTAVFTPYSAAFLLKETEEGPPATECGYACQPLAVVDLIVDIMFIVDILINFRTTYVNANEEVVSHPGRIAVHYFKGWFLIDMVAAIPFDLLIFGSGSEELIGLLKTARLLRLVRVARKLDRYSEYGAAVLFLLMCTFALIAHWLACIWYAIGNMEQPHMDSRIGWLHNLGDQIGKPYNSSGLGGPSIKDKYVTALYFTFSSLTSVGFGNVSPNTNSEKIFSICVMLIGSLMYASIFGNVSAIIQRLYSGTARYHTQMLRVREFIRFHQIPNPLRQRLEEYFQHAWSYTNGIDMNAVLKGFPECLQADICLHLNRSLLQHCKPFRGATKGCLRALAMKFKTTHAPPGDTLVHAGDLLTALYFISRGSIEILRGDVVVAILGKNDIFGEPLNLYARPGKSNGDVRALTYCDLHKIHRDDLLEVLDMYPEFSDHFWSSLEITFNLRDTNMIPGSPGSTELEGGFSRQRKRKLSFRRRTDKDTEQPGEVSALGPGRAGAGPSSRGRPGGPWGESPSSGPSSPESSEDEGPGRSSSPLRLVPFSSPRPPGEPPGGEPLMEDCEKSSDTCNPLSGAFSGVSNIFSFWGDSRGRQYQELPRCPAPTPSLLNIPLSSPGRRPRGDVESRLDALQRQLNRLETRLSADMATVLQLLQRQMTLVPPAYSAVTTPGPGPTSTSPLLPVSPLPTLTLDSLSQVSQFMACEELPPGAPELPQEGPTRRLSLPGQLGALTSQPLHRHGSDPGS
Sequence of Neuronal acetylcholine receptor; alpha3/beta2 (P17787 whole entry): as the sequence (P17787 whole entry) above
Sequence of Neuronal acetylcholine receptor; alpha3/beta2 (P32297 whole entry): as the sequence (P32297 whole entry) above

Compound | Ki [1] | further results
CCN(CC)CC#Cc1ccc2c(c1)C(=O)c1cc(C#CCN(CC)CC)ccc1-2 | 0.087 µM | –
O=S1(=O)c2ccccc2-c2ccc(O[C@@H]3CN4CCC3CC4)cc21 | 0.028 µM | –
O=C1c2cc(OCCN3CCCC3)ccc2-c2ccc(OCCN3CCCC3)cc21 | 0.053 µM | –
CCN(CC)CCOc1cccc(C(=O)c2cccc(OCCN(CC)CC)c2)c1 | 68 µM | –
O=C1c2cc(O[C@@H]3CN4CCC3CC4)ccc2-c2ccc(O[C@@H]3CN4CCC3CC4)cc21 | 0.0016 µM | –
O=S1(=O)c2ccccc2-c2ccc(N3CCN4CCC3CC4)cc21 | 2.3e-05 µM | EC50 [2]: > 100 µM; concentration at 0.5 h [3]: 8.4 ng/mL; EC50 [4]: > 100 µM; Emax [5]: < 5%; Kp at 0.5 h [6]: 12; Ki [7]: 0.66 µM; Ki [8]: 0.47 µM; EC50 [9]: > 100 µM
O=C1c2cc(N3C[C@@H]4CN[C@@H]4C3)ccc2-c2ccc(N3C[C@@H]4CN[C@@H]4C3)cc21 | 0.018 µM | –
CN1C[C@H]2CN(c3ccc4c(c3)S(=O)(=O)c3ccccc3-4)C[C@H]21 | 0.023 µM | –
CN1CC[C@@H](Oc2ccc3c(c2)C(=O)c2cc(O[C@@H]4CCN(C)C4)ccc2-3)C1 | 0.012 µM | –
CCN(CC)CCOc1ccc2c(c1)C(=O)c1ccccc1-2 | 1.8 µM | –
CC(C)N(CCOc1ccc2c(c1)C(=O)c1cc(OCCN(C(C)C)C(C)C)ccc1-2)C(C)C | 1.3 µM | –
CN1CC2CN(c3ccc4c(c3)C(=O)c3ccccc3-4)CC2C1 (configuration not stated) | 0.063 µM | –
CCN(CC)CCOc1ccc2c(c1)sc1cc(OCCN(CC)CC)ccc12 | 1.6 µM | –
CCN(CC)CCOc1ccc2oc3ccc(OCCN(CC)CC)cc3c(=O)c2c1 | 0.44 µM | –
CN1C[C@H]2CN(c3ccc4c(c3)C(=O)c3ccccc3-4)C[C@H]21 | 0.0059 µM | Ratio Ki [10]: 10
CN1CCC(Oc2ccc3c(c2)C(=O)c2cc(OC4CCN(C)CC4)ccc2-3)CC1 | 0.037 µM | –
CCN(CC)CCOc1ccc2c(c1)C(O)c1cc(OCCN(CC)CC)ccc1-2 | 0.27 µM | –
CN1CC2CN(c3ccc4c(c3)C(=O)c3cc(N5CC6CN(C)CC6C5)ccc3-4)CC2C1 (configuration not stated) | 0.0012 µM | –
CN1CCCN(c2ccc3c(c2)C(=O)c2cc(N4CCCN(C)CC4)ccc2-3)CC1 | 0.0065 µM | Ratio Ki [10]: 10
CN1CC2CN(c3ccc4oc5ccccc5c(=O)c4c3)CC2C1 (configuration not stated) | 0.004 µM | EC50 [2]: > 100 µM; concentration at 0.5 h [3]: 12.4 ng/mL; EC50 [4]: > 100 µM; Emax [5]: 61%; Kp at 0.5 h [6]: 48; Ki [7]: 0.1 µM; EC50 [9]: 2.2 µM
CN(C)CCOc1ccc2c(c1)C(=O)c1cc(OCCN(C)C)ccc1-2 | 0.05 µM | –
CCN(CC)CCOc1ccc(-c2ccc(OCCN(CC)CC)cc2)cc1 | > 1000 µM | –
O=C1c2ccccc2-c2ccc(N3CCN4CCC3CC4)cc21 | 0.00028 µM | –
CCN(CC)CCCOc1ccc2c(c1)C(=O)c1cc(OCCCN(CC)CC)ccc1-2 | 0.83 µM | –
CN1CC[C@@H]1COc1ccc2c(c1)C(=O)c1cc(OC[C@H]3CCN3C)ccc1-2 | 0.0043 µM | –
O=c1c2ccccc2oc2ccc(O[C@H]3CN4CCC3CC4)cc12 | 0.0087 µM | –
CCN(CC)CCOc1ccc2c3ccc(OCCN(CC)CC)cc3[s+]([O-])c2c1 | 0.69 µM | –

Compound | Ki [1] | further results
CCN(CC)CCOc1ccc2c(c1)S(=O)(=O)c1cc(OCCN(CC)CC)ccc1-2 | 0.23 µM | –
O=C1c2cc(O[C@@H]3CCNC3)ccc2-c2ccc(O[C@@H]3CCNC3)cc21 | 0.071 µM | –
O=c1c2ccccc2oc2ccc(O[C@@H]3CN4CCC3CC4)cc12 | 0.0088 µM | –
CN1CC2CN(c3ccc4c(c3)C(=O)c3cc(N)ccc3-4)CC2C1 (configuration not stated) | 0.00065 µM | –
O=S1(=O)c2ccccc2-c2ccc(O[C@H]3CN4CCC3CC4)cc21 | 0.0039 µM | –
CN1[C@@H]2CC[C@H]1C[C@H](Oc1ccc3c(c1)C(=O)c1cc(O[C@@H]4C[C@H]5CC[C@@H](C4)N5C)ccc1-3)C2 | 0.09 µM | –
CCN(CC)CCCCOc1ccc2c(c1)C(=O)c1cc(OCCCCN(CC)CC)ccc1-2 | 2.3 µM | –
CCN(CC)CCOc1ccc2c(c1)C(=O)c1cc(OCCOC)ccc1-2 | 2 µM | –
c1ccc2c(c1)Cc1cc(O[C@@H]3CN4CCC3CC4)ccc1-2 | 0.34 µM | –
O=C1c2ccccc2-c2ccc(O[C@H]3CN4CCC3CC4)cc21 | 0.0032 µM | –
c1ccc2c(c1)Cc1cc(O[C@H]3CN4CCC3CC4)ccc1-2 | 0.11 µM | –
CN1C[C@H]2CN(c3ccc4c(c3)C(=O)c3cc(N5C[C@@H]6CN(C)[C@@H]6C5)ccc3-4)C[C@H]21 | 9.2e-05 µM | –
CCNCCOc1ccc2c(c1)C(=O)c1cc(OCCNCC)ccc1-2 | 0.95 µM | –
CCN(CC)CCOc1ccc2c(c1)C(=O)c1cc(OCCN(CC)CC)ccc1-2 [TILORONE] | 0.056 µM | Emax [5]: 67%; Ki [11]: 0.42 µM; EC50 [12]: > 10 µM; EC50 [13]: > 10 µM; EC50 [14]: > 10 µM; EC50 [9]: 2.5 µM; EC50 [15]: > 10 µM
CCN(CC)CCOc1ccc2c(c1)Cc1cc(OCCN(CC)CC)ccc1-2 | 0.77 µM | –
CN1CCC[C@H]1COc1ccc2c(c1)C(=O)c1cc(OC[C@@H]3CCCN3C)ccc1-2 | 0.012 µM | –
O=C1c2ccccc2-c2ccc(O[C@@H]3CN4CCC3CC4)cc21 | 0.012 µM | –
CCN(CC)CCCc1ccc2c(c1)C(=O)c1cc(CCCN(CC)CC)ccc1-2 | 2.9 µM | –
O=C1c2cc(OCCN3CCCCC3)ccc2-c2ccc(OCCN3CCCCC3)cc21 | 4.2 µM | –
CCN(CC)CCOc1ccc2ccc(OCCN(CC)CC)cc2c1 | > 1000 µM | –
CN1CCC[C@@H]1COc1ccc2c(c1)C(=O)c1cc(OC[C@H]3CCCN3C)ccc1-2 | 0.0076 µM | –
O=C1c2cc(O[C@H]3CN4CCC3CC4)ccc2-c2ccc(O[C@H]3CN4CCC3CC4)cc21 | 0.00058 µM | –
CC[N+](C)(CC)CCOc1ccc2c(c1)C(=O)c1cc(OCC[N+](C)(CC)CC)ccc1-2 | 0.015 µM | –
NCCOc1ccc2c(c1)C(=O)c1cc(OCCN)ccc1-2 | 15 µM | –
CN1CCN(c2ccc3c(c2)C(=O)c2cc(N4CCN(C)CC4)ccc2-3)CC1 | 0.14 µM | –
O=C1c2cc(N3CC4CNCC4C3)ccc2-c2ccc(N3CC4CNCC4C3)cc21 (configuration not stated) | 0.00031 µM | –
